In US20050032757A1, “Nutritional supplements” (priority 2003, published 2005):
Structures can show the parent of a compound that is named as a salt.

Assay: Evaluation of composition stability of PSE and fish oil mixtures with test reagents
Assay type: physicochemical
Settings: fish oil 2 g
Method: Varying amounts of PSE and fish oil were mixed in a 50 ml beaker. The mixture was warmed to 35-40° C. A variety of test reagents, including surfactants and small carboxylic acid esters, were then examined for their ability to stabilize the mixture at room temperature (RT), 40° C., and 50° C.

[1] = Phytosterol 4 g, test reagent 0.20 g
[2] = Phytosterol 4 g, test reagent 0.10 g
[3] = Phytosterol 4 g, test reagent 0.30 g
[4] = Phytosterol 4 g, test reagent 0.40 g
[5] = Phytosterol 2 g, test reagent 0.10 g

Compound	Stability results [1]	Stability results [2]	Stability results [3]	Stability results [4]	Stability results [5]	Stability results (Phytosterol 2 g, test reagent 0.30 g)
Sodium Caproyl Lactylate	unstable (unstable (separated quickly, usually less than 1-2 hr))					
Sorbitan Oleate	unstable (unstable (separated quickly, usually less than 1-2 hr))	unstable (unstable (separated quickly, usually less than 1-2 hr))	unstable (unstable (separated quickly, usually less than 1-2 hr))	unstable (unstable (separated quickly, usually less than 1-2 hr))		
CCOC(=O)[C@H](O)[C@@H](O)C(=O)OCC [Diethyl L-tartrate]	stable (stable (did not separate for 24 hours))	stable (stable (did not separate for 24 hours))	stable (stable (did not separate for 24 hours))			
Polysorbate 60	unstable (unstable (separated quickly, usually less than 1-2 hr))		unstable (unstable (separated quickly, usually less than 1-2 hr))	unstable (unstable (separated quickly, usually less than 1-2 hr))	unstable (unstable (separated quickly, usually less than 1-2 hr))	
OCC(O)CO [Glycerin]		insoluble				
CCOC(=O)CC(O)(CC(=O)OCC)C(=O)OCC [Triethyl Citrate]	stable (stable (did not separate for 24 hours))	stable (stable (did not separate for 24 hours))	stable (stable (did not separate for 24 hours))	stable (stable (did not separate for 24 hours))		unstable (unstable (separated quickly, usually less than 1-2 hr))
Sodium Isostearyl Lactylate		unstable (unstable (separated quickly, usually less than 1-2 hr))				
O=C(O)CC(O)(CC(=O)O)C(=O)O [Citric Acid]	insoluble	insoluble	insoluble			
CCOC(=O)/C=C\C(=O)OCC [Diethyl Maleate]	stable (stable (did not separate for 24 hours))	stable (stable (did not separate for 24 hours))	insoluble			
Polysorbate 80	unstable (unstable (separated quickly, usually less than 1-2 hr))				unstable (unstable (separated quickly, usually less than 1-2 hr))	
Polysorbate 20	unstable (unstable (separated quickly, usually less than 1-2 hr))	unstable (unstable (separated quickly, usually less than 1-2 hr))				
